Assay results published in patent publication US8129398B2 (priority 2008, dated 2012).

Each compound was assayed against T1, HIV-integrase (Human immunodeficiency virus type 1 group M subtype B, UniProt P12497) (assay: HIV-Integrase Inhibition Activity (SPA bead integration assay with P33 labeled target DNA)). Conditions: recombinant integrase, class symbols; read-out: in vitro activity.
T1 construct: Recombinant integrase (0.26 ng) was incubated with the beads
Type: biochemical
In short: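 Strand integration read as bead-proximity CPM after P33 target DNA (0.1 fmol) and inhibitor were added to washed integrase–substrate DNA complexes on SPA beads. Enzyme bound 90 min at 37° C; EDTA (10 mM final) terminated reaction; IC50 graded A/B/C.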

| SMILES | IC50 [nM] |
| --- | --- |
| CC(=O)N[C@@H]1CCN(C(=O)C(=O)NC23CCC(CC2)Cn2c3nc(C(=O)NCc3ccc(F)cc3)c(O)c2=O)C1 [Example 86, 10-((((3R)-3-(Dcetylamino)-1-pyrrolidinyl)(oxo)acetyl)amino)-N-(4-fluorobenzyl)-3-hydroxy-4-oxo-4,6,7,8,9,10-hexahydro-7,10-ethanopyrimido[1,2-a]azepine-2-carboxamide] | < 10 |
| O=C(NC12CCC(CC1)Cn1c2nc(C(=O)NCc2ccc(F)cc2)c(O)c1=O)c1cnc2ccccc2c1 [Example 315, 7,10-Ethanopyrimido[1,2-a]azepine-2-carboxamide, N-[(4-fluorophenyl)methyl]-4,6,7,8,9,10-hexahydro-3-hydroxy-4-oxo-10-[(3-quinolinylcarbonyl)amino]-] | < 10 |
| O=C(NC12CCC(CC1)Cn1c2nc(C(=O)NCc2ccc(F)cc2)c(O)c1=O)C(=O)N1CC[C@@H](F)C1 [Example 104, N-(4-Fluorobenzyl)-10-((((3R)-3-fluoro-1-pyrrolidinyl)(oxo)acetyl)amino)-3-hydroxy-4-oxo-4,6,7,8,9,10-hexahydro-7,10-ethanopyrimido[1,2-a]azepine-2-carboxamide] | < 10 |
| Cc1cc(CNC(=O)c2nc3n(c(=O)c2O)CC2CCC3(NC(=O)[C@H]3CCN(S(C)(=O)=O)C3)CC2)ccc1F [Example 283, 7,10-Ethanopyrimido[1,2-a]azepine-2-carboxamide, N-[(4-fluoro-3-methylphenyl)methyl]-4,6,7,8,9,10-hexahydro-3-hydroxy-10-[[[(3S)-1-(methylsulfonyl)-3-pyrrolidinyl]carbonyl]amino]-4-oxo-] | < 10 |
| O=C(NCc1ccc(F)cc1)c1nc2n(c(=O)c1O)CC1CCC2(NC(=O)C2CCOC2)CC1 (centres unmarked) [Example 238, 7,10-Ethanopyrimido[1,2-a]azepine-2-carboxamide, N-[(4-fluorophenyl)methyl]-4,6,7,8,9,10-hexahydro-3-hydroxy-4-oxo-10-[[(tetrahydro-3-furanyl)carbonyl]amino]-] | < 10 |
| COCC1(C(=O)NC23CCC(CC2)Cn2c3nc(C(=O)NCc3ccc(F)c(C)c3)c(O)c2=O)CC1 [Example 302, 7,10-Ethanopyrimido[1,2-a]azepine-2-carboxamide, N-[(4-fluoro-3-methylphenyl)methyl]-4,6,7,8,9,10-hexahydro-3-hydroxy-10-[[[1-(methoxymethyl)cyclopropyl]carbonyl]amino]-4-oxo-] | < 10 |
| Cc1ccc(CNC(=O)c2nc3n(c(=O)c2O)CC2CCC3(NC(=O)C(=O)N(C)C)CC2)o1 [Example 234] | < 10 |
| CO[C@H]1C[C@@H](C(=O)NC23CCC(CC2)Cn2c3nc(C(=O)NCc3ccc(F)c(C)c3)c(O)c2=O)N(C(=O)c2nccn2C)C1 [Example 298, 7,10-Ethanopyrimido[1,2-a]azepine-2-carboxamide, N-[(4-fluoro-3-methylphenyl)methyl]-4,6,7,8,9,10-hexahydro-3-hydroxy-10-[[[(2S,4S)-4-methoxy-1-[(1-methyl-1H-imidazol-2-yl)carbonyl]-2-pyrrolidinyl]carbonyl]amino]-4-oxo-] | < 10 |
| Cn1cnc(S(=O)(=O)N2CCN(C(=O)C(=O)NC34CCC(CC3)Cn3c4nc(C(=O)NCc4ccc(F)cc4)c(O)c3=O)CC2)c1 [Example 148, N-(4-Fluorobenzyl)-3-hydroxy-10-(((4-((1-methyl-1H-imidazol-4-yl)sulfonyl)-1-piperazinyl)(oxo)acetyl)amino)-4-oxo-4,6,7,8,9,10-hexahydro-7,10-ethanopyrimido[1,2-a]azepine-2-carboxamide] | < 10 |
| CC(=O)N1CC[C@H]1C(=O)NC12CCC(CC1)Cn1c2nc(C(=O)NCc2ccc(F)cc2)c(O)c1=O [Example 267, 7,10-Ethanopyrimido[1,2-a]azepine-2-carboxamide, 10-[[[(2S)-1-acetyl-2-azetidinyl]carbonyl]amino]-N-[(4-fluorophenyl)methyl]-4,6,7,8,9,10-hexahydro-3-hydroxy-4-oxo-] | < 10 |
| CN(C)C(=O)C(=O)NC12CCC(CC1)Cn1c2nc(C(=O)NCCCc2ccccc2)c(O)c1=O [Example 349] | < 10 |
| CO[C@H]1C[C@@H](C(=O)NC23CCC(CC2)Cn2c3nc(C(=O)NCc3ccc(F)c(C)c3)c(O)c2=O)N(C(=O)c2cc(C)on2)C1 [Example 296, 7,10-Ethanopyrimido[1,2-a]azepine-2-carboxamide, N-[(4-fluoro-3-methylphenyl)methyl]-4,6,7,8,9,10-hexahydro-3-hydroxy-10-[[[(2S,4S)-4-methoxy-1-[(5-methyl-3-isoxazolyl)carbonyl]-2-pyrrolidinyl]carbonyl]amino]-4-oxo-] | < 10 |
| CCN(C)C(=O)C(=O)NC12CCC(CCn3c1nc(C(=O)NCc1ccc(F)cc1)c(O)c3=O)C2 (centres unmarked) [Example 204] | < 10 |
| CN(C)C(=O)C(=O)NC12CCC(CC1)Cn1c2nc(C(=O)NCCc2ccc(Cl)cc2)c(O)c1=O [Example 345] | 10 to 100 |
| Cc1cc(CNC(=O)c2nc3n(c(=O)c2O)CC2CCC3(NC(=O)N(C)c3ccccn3)CC2)ccc1F [Example 329, 7,10-Ethanopyrimido[1,2-a]azepine-2-carboxamide, N-[(4-fluoro-3-methylphenyl)methyl]-4,6,7,8,9,10-hexahydro-3-hydroxy-10-[[(methyl-2-pyridinylamino)carbonyl]amino]-4-oxo-] | < 10 |
| CC(=O)N1CCC[C@H]1C(=O)NC12CCC(CC1)Cn1c2nc(C(=O)NCc2ccc(F)c(C)c2)c(O)c1=O [Example 262, 7,10-Ethanopyrimido[1,2-a]azepine-2-carboxamide, 10-[[[(2S)-1-acetyl-2-pyrrolidinyl]carbonyl]amino]-N-[(4-fluoro-3-methylphenyl)methyl]-4,6,7,8,9,10-hexahydro-3-hydroxy-4-oxo-] | < 10 |
| Cc1cc(CNC(=O)c2nc3n(c(=O)c2O)CC2CCC3(NC(=O)c3ccccn3)CC2)ccc1F [Example 313, 7,10-Ethanopyrimido[1,2-a]azepine-2-carboxamide, N-[(4-fluoro-3-methylphenyl)methyl]-4,6,7,8,9,10-hexahydro-3-hydroxy-4-oxo-10-[(2-pyridinylcarbonyl)amino]-] | < 10 |
| CN(C)C(=O)C(=O)NC12CCC(CC1)Cn1c2nc(C(=O)NCc2ccc(F)c(C(F)F)c2)c(O)c1=O [Example 124, N′-(2-((3-(Difluoromethyl)-4-fluorobenzyl)carbamoyl)-3-hydroxy-4-oxo-6,7,8,9-tetrahydro-7,10-ethanopyrimido[1,2-a]azepin-10(4H)-yl)-N,N-dimethylethanediamide] | < 10 |
| NC12CCC(CC1)n1c2nc(C(=O)NCc2ccc(F)cc2)c(O)c1=O [Example 11, 6,9-Ethano-4H-pyrido[1,2-a]pyrimidine-2-carboxamide, 9-amino-N-[(4-fluorophenyl)methyl]-6,7,8,9-tetrahydro-3-hydroxy-4-oxo-] | 10 to 100 |
| O=C(NC12CCC(CC1)Cn1c2nc(C(=O)NCc2ccc(F)cc2)c(O)c1=O)c1ccnc(N2CCOCC2)c1 [Example 317, 7,10-Ethanopyrimido[1,2-a]azepine-2-carboxamide, N-[(4-fluorophenyl)methyl]-4,6,7,8,9,10-hexahydro-3-hydroxy-10-[[[2-(4-morpholinyl)-4-pyridinyl]carbonyl]amino]-4-oxo-] | < 10 |
| CN(C)C(=O)C(=O)N[C@H]1c2nc(C(=O)NCc3ccc(F)cc3)c(O)c(=O)n2C[C@H]2CC[C@]1(C)C2(C)C [Example 183, N′-((7S,10R,11R)-2-((4-Fluorobenzyl)carbamoyl)-3-hydroxy-10,12,12-trimethyl-4-oxo-6,7,8,9,10,11-hexahydro-4H-7,10-methanopyrimido[1,2-a]azocin-11-yl)-N,N-dimethylethanediamide] | 10 to 100 |
| CN(C)C(=O)C(=O)NC12CCC(CC1)Cn1c2nc(C(=O)NCC2CC2)c(O)c1=O [Example 352] | > 100 |
| O=C(NC12CCC(CC1)Cn1c2nc(C(=O)NCc2ccc(F)cc2)c(O)c1=O)C(=O)N1CCC(F)(F)CC1 [Example 85, 10-(((4,4-Difluoro-1-piperidinyl) (oxo)acetyl)amino)-N-(4-fluorobenzyl)-3-hydroxy-4-oxo-4,6,7,8,9,10-hexahydro-7,10-ethanopyrimido[1,2-a]azepine-2-carboxamide] | < 10 |
| Cn1ccnc1CN1CCN(C(=O)C(=O)NC23CCC(CC2)Cn2c3nc(C(=O)NCc3ccc(F)cc3)c(O)c2=O)CC1 [Example 137, N-(4-Fluorobenzyl)-3-hydroxy-10-(((4-((1-methyl-1H-imidazol-2-yl)methyl)-1-piperazinyl)(oxo)acetyl)amino)-4-oxo-4,6,7,8,9,10-hexahydro-7,10-ethanopyrimido[1,2-a]azepine-2-carboxamide] | < 10 |
| CC(C)OC(=O)N1CCCC1C(=O)NC12CCC(CC1)Cn1c2nc(C(=O)NCc2ccc(F)cc2)c(O)c1=O (centres unmarked) [Example 405] | < 10 |
| Cn1cc(C(=O)NC23CCC(CC2)Cn2c3nc(C(=O)NCc3ccc(F)cc3)c(O)c2=O)cn1 [Example 246, 7,10-Ethanopyrimido[1,2-a]azepine-2-carboxamide, N-[(4-fluorophenyl)methyl]-4,6,7,8,9,10-hexahydro-3-hydroxy-10-[[(1-methyl-1H-pyrazol-4-yl)carbonyl]amino]-4-oxo-] | < 10 |
| O=C(NC12CCC(CCn3c1nc(C(=O)NCc1ccc(F)cc1)c(O)c3=O)C2)C(=O)N1CC(F)(F)C1 (centres unmarked) [Example 202, 8,1,1-Methano-4H-pyrimido[1,2-a]azocine-2-carboxamide, 1′-[[2-(3,3-difluoro-1-azetidinyl)-1,2-dioxoethyl]amino]-N-[(4-fluorophenyl)methyl]-6,7,8,9,10,11-hexahydro-3-hydroxy-4-oxo-] | < 10 |
| O=C(NCc1ccc(F)cc1)c1nc2n(c(=O)c1O)CC1CCC2(NC(=O)C2CCCN2C(=O)C2CC2)CC1 (centres unmarked) [Example 407] | < 10 |
| Cc1cc(C(=O)N(C)C23CCC(CC2)Cn2c3nc(C(=O)NCc3ccc(F)cc3)c(O)c2=O)no1 [Example 154, N-(4-Fluorobenzyl)-3-hydroxy-10-(methyl((5-methyl-3-isoxazolyl)carbonyl)amino)-4-oxo-4,6,7,8,9,10-hexahydro-7,10-ethanopyrimido[1,2-a]azepine-2-carboxamide] | < 10 |
